Results as given in article PMC9311615 (Antibiotics, 2022).
Read-outs that look alike come from different tables or passages of the source.

What was measured:
[1] = Population pharmacokinetic model (NONMEM), one-compartment first-order elimination
Procedure: Basic model building was performed using the building subset (n = 94), through PsN-controlled NONMEM iterative runs. One- and two- compartment models with first-order elimination, parametrized in terms of drug Cl and Vd, were evaluated. Residual error was described using additive, proportional or mixed error models. Models were compared based on the following aspects: (1) minimization of the OFV; (2) standard errors and confidence intervals of parameter estimates, calculated for each model through NONMEM correlation matrices and PsN-controlled bootstrap method; (3) goodness-of-fit plots generated with Xpose4 [24]; (4) plausibility of parameter estimates, according to the literature.
The preliminary covariate screening was performed through several Xpose4 functions, which are as follows: (1) graphic analysis of covariate-covariate plots to exclude redundancies, (2) graphic analysis of parameters-covariate plots, (3) generalized additive model (GAM) to search for the covariates that minimized the most of Akaike’s information criterion (AIC) value. Covariate model building was based on the least absolute shrinkage and selection operator method, which is automated within the “lasso” Perl command [17]. Further insights on covariates effect were collected with the same methods, after the second patient enrollment round.
The final model was validated both with internal and external approaches. The former one was performed through the following steps: (1) a visual predictive check (VPC), namely a concentration-time plot, where the mean and 5th and 95th percentile of real data are superimposed to the respective descriptive measures of simulated concentrations; (2) a numeric predictive check, which assesses abnormal trends in the DV/iPRED ratio for different statistical confidence intervals; (3) a bootstrap of the model, which calculates the bias between final parameters estimates and the means estimated through 1500 further runs of the same model, based on a random resampling from the same dataset; (4) calculation of η- and ε-shrinkage, as described in the following equations:(3) ηshrink=1−stdev(ηest)/ω (4) εshrink=1−stdev(IWRES)

E. faecium = settings: Monte-Carlo on Dvorchik's pop-PK model, cited from earlier work
[2] = Daptomycin plasma concentrations, routine TDM, HPLC-UV; settings: for Daptomycin plasma concentration 1 h, mean ± SD: peak; for Daptomycin plasma concentration 23.5 h, mean ± SD: trough
Procedure: This work was conducted in the framework of DAPTOLIN, an observational retrospective study approved by the Ethics Committee of the Azienda OspedalieroUniversitaria Pisana (AOUP protocol number 55945). […] Patients with incomplete medical records were excluded. […] After the first round, in which 134 patients were included, the dataset was split in 2 subsets through an iterative stratified sampling procedure [21]. The covariates considered for subset balancing were sex, weight, CrCl (calculated through the Cockroft-Gault equation), serum albumin and serum total protein concentration. During the second round, 22 further patients were included, to reach a total of 156 included patients.
Venous blood samples were collected in heparinized tubes and centrifuged immediately after. The extracted plasma was then stored at −20 °C until subsequent analysis.
The quantification technique was based on the novel HPLC-UV method developed and described by Luci and colleagues [22]. Briefly, plasma samples were firstly purified using a 95:5 v/v mixture of acetonitrile and 85% H3PO4, to induce protein precipitation. Samples were then vortexed for 30 s and centrifuged at 7700 rpm for 15 min. […] The mobile phase, composed of a 54:46 v/v mixture of 20 mM KH2PO4 and acetonitrile at pH 3.2, was pumped in the HPLC system at a 1 mL/min flowrate, while the chromatographic column temperature was kept at 35 °C. These conditions allowed the optimal separation of analytes in a 10 min-long chromatographic run.

[3] = daily dose 6–7 mg/kg, n = 96 patients
[4] = daily dose 8–9 mg/kg, n = 32 patients
[5] = daily dose 10–11 mg/kg, n = 8 patients

CCCCCCCCCC(=O)N[C@@H](Cc1c[nH]c2ccccc12)C(=O)N[C@H](CC(N)=O)C(=O)N[C@@H](CC(=O)O)C(=O)N[C@@H]1C(=O)NCC(=O)N[C@@H](CCCN)C(=O)N[C@@H](CC(=O)O)C(=O)N[C@H](C)C(=O)N[C@@H](CC(=O)O)C(=O)NCC(=O)N[C@H](CO)C(=O)N[C@@H]([C@H](C)CC(=O)O)C(=O)N[C@@H](CC(=O)c2ccccc2N)C(=O)O[C@@H]1C [Daptomycin]
Cl (θ1), bootstrap mean ([1]; 1500-samples bootstrap): 0.631 L/h
V (θ2), bootstrap mean ([1]; 1500-samples bootstrap): 10.935 L
kCrCl (θ5), bootstrap mean ([1]; 1500-samples bootstrap): 0.128
kSex (θ6), bootstrap mean ([1]; 1500-samples bootstrap): −2.484
Vd ([1]; human, in vivo): 10.9 L
clearance ([1]; human, in vivo): 10.6 mL/min
CFR against E. faecium reported by Turnidge et al. (E. faecium; 8 mg/kg × MIC 2): 80.4%
CFR against E. faecium reported by Turnidge et al. (E. faecium; 10 mg/kg × MIC 2): 92.9%
Daptomycin plasma concentration 1 h, mean ± SD ([2]; daily dose 12 mg/kg, n = 4 patients): 80.0 ± 25.7
Daptomycin plasma concentration 23.5 h, mean ± SD ([2]; daily dose 4–5 mg/kg, n = 15 patients): 11.4 ± 8.7
Daptomycin plasma concentration 1 h, mean ± SD [2, 3]: 59.3 ± 18.0
Daptomycin plasma concentration 23.5 h, mean ± SD [2, 3]: 17.8 ± 11.0
Daptomycin plasma concentration 1 h, mean ± SD [2, 4]: 74.4 ± 51.3
Daptomycin plasma concentration 23.5 h, mean ± SD [2, 4]: 15.5 ± 10.7
Daptomycin plasma concentration 1 h, mean ± SD [2, 5]: 69.8 ± 21.7
Daptomycin plasma concentration 23.5 h, mean ± SD [2, 5]: 25.4 ± 14.1
